Data from ChEMBL document CHEMBL5579902, “Medullins A-H, Sesquiterpenes from Perenniporia medulla-panis, and Their Cellular Signaling Mechanism in HDF Cells” (J Nat Prod, 2024).
Activity calls are given as the source filed them. The rule behind the calls is not given here.

Experiments:
HDF [1] = test: Induction of p38 phosphorylation in HDF cells at 10 uM incubated at 0.5 to 24 hrs by Western blot analysis; format: cell-based; conditions: Homo sapiens, time 0.5-24 hrs
[2] = molecular target: Mitogen-activated protein kinase; ERK1/ERK2 (Homo sapiens) (UniProt P27361+P28482); test: Induction of ERK1/2 phosphorylation in HDF cells at 10 uM incubated at 0.5 to 24 hrs by Western blot analysis; format: cell-based; conditions: filed as activator, time 0.5-24 hrs
Mitogen-activated protein kinase; ERK1/ERK2 (Homo sapiens), sequence (P27361 whole entry, looked up): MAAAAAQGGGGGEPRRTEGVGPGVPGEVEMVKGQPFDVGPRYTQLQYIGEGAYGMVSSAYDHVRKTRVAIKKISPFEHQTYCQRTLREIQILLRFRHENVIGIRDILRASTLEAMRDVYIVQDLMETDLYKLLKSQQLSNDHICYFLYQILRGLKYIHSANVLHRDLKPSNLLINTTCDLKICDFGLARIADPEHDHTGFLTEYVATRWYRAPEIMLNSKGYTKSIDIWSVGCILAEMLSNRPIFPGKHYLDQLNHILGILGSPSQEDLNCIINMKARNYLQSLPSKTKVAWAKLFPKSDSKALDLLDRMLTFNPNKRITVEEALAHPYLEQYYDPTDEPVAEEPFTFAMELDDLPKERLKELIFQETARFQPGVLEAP
Mitogen-activated protein kinase; ERK1/ERK2 (Homo sapiens), sequence (P28482 whole entry, looked up): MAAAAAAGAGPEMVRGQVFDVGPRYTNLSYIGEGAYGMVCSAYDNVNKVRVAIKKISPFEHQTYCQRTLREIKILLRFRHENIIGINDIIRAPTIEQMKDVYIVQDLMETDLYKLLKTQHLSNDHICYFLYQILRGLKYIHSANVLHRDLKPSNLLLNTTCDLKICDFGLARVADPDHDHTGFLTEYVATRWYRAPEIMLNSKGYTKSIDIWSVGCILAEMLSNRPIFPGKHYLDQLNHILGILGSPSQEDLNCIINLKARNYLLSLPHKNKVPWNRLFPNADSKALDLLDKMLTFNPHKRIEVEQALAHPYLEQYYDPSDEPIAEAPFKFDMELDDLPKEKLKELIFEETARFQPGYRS

NHDF = test: Cytotoxicity against HDF cells assessed as reduction in cell viability at 10 uM incubated for 24 to 48 hrs by MTT assay; format: toxicity, cell-based; conditions: human, time 24-48 hrs
HDF [3] = test: Induction of JNK phosphorylation in HDF cells at 10 uM incubated at 0.5 to 24 hrs by Western blot analysis; format: cell-based; conditions: Homo sapiens, filed as activator, time 0.5-24 hrs

| Activity [2] | SMILES | Activity (HDF [1]) | Activity (NHDF) | Activity (HDF [3]) |
| --- | --- | --- | --- | --- |
| Active | CC(=O)O[C@@H]1[C@H](O)C2=C(C(=O)N(CC(=O)O)C2)[C@@]2(C)CCCC(C)(C)[C@H]12 | inactive | Non-Toxic | Active |
| Active | CC(=O)O[C@@H]1[C@H](O)C2=C(C(=O)N([C@H](C(=O)O)[C@@H](C)O)C2)[C@@]2(C)CCCC(C)(C)[C@H]12 | inactive | Non-Toxic | Active |
| Active | CC(=O)O[C@@H]1[C@H](O)C2=C(C(=O)N([C@@H](C)C(=O)O)C2)[C@@]2(C)CCCC(C)(C)[C@H]12 | inactive | Non-Toxic | Active |
| Active | CC(=O)O[C@@H]1[C@H](O)C2=C(C(=O)N([C@H](C(=O)O)C(C)C)C2)[C@@]2(C)CCCC(C)(C)[C@H]12 | inactive | Non-Toxic | Active |

Second part, the compound before the results:

| SMILES | Activity [2] | Activity (HDF [1]) | Activity (NHDF) | Activity (HDF [3]) |
| --- | --- | --- | --- | --- |
| CC[C@H](C)[C@@H](C(=O)O)N1CC2=C(C1=O)[C@@]1(C)CCCC(C)(C)[C@@H]1[C@H](OC(C)=O)[C@@H]2O | Active | inactive | Non-Toxic | Active |
| CC(=O)O[C@@H]1[C@H](O)C2=C(C(=O)N([C@@H](CC(C)C)C(=O)O)C2)[C@@]2(C)CCCC(C)(C)[C@H]12 | Active | inactive | Non-Toxic | Active |
| CC(=O)O[C@@H]1[C@H](O)C2=C(C(=O)N([C@@H](Cc3ccccc3)C(=O)O)C2)[C@@]2(C)CCCC(C)(C)[C@H]12 | Active | inactive | Non-Toxic | Active |
